Results published in patent US11679165B2, “Alkenyl substituted 2,5-piperazinediones, compositions, and uses thereof” (Massachusetts Institute of Technology, priority 2015, dated 2023).

Tests used:
[1] = system: human Erythropoietin (EPO); experiment: Serum EPO after intravenous injection of EPO mRNA loaded LNPs (ELISA); format: in vivo, mice; details: for serum EPO concentration: 0.75 mg/kg intravenous, C57BL/6 mice, six hours (FIG. 2); for Average EPO: serum EPO, mean±SD (n=3), 6 hr after 0.75 mg/kg intravenous injection into mice, lipid formulated as EPO mRNA LNP
Experimental: Compounds OF-00 through OF-03 were then formulated with human erythropoietin (EPO) mRNA, cholesterol, 1,2-dioleoyl-sn-glycero-3-phosphoethanolamine, and C14-PEG-2000 in accordance with previously optimized formulation parameters for mRNA delivery. See, e.g., A. Amirouche et al., Human molecular genetics 2013, 22, 3093-3111. […] Additionally, cKK-E12 is capable of silencing Factor VII expression in mice at siRNA doses as low as 0.002 mg/kg, and as such it represents a benchmark ionizable lipid in the field of nucleic acid delivery. The nanoparticle diameters, polydispersity indices, and encapsulation efficiencies for each of these five formulations is provided in Table 1. Serum EPO concentrations are reported as mean±SD (n=3) 6 hr after a 0.75 mg/kg dose intravenous injection into mice. Encapsulation efficiencies, LNP diameter, and PDI were collected as described above for each representative LNP formulation.
Each resultant mRNA loaded LNP was then injected intravenously at a 0.75 mg/kg dose in C57BL/6 mice alongside phosphate buffered saline (PBS) as a negative control. At six hours, the serum EPO levels were quantified (FIG. 2). The PBS control imparted no significant EPO production in vivo, whereas positive control cKK-E12 LNPs promoted a serum EPO concentration of 7050 ng/mL. […] Additionally, OF-02 outperformed two other benchmark ionizable lipids from the siRNA delivery field, namely 503-013 (See, e.g, J. McClellan, M. C. King, Cell 2010, 141, 210-217; Whitehead et al., Nature Communications (2014) 5:4277) and C12-200 (K. T. Love et al., Proceedings of the National Academy of Sciences of the United States of America 2010, 107, 1864-1869). These two compounds represent the leads in their respective ionizable lipid classes of acrylate esters and amino alcohols, and promoted respective EPO concentrations of 2836 ng/mL and 7065 ng/mL at an identical dose.
General Lipid Nanoparticle (LNP) Synthesis. The organic phase was prepared by solubilizing with ethanol a mixture of ionizable lipid, 1,2-dioleoyl-sn-glycero-3-phosphoethanolamine (DOPE, Avanti), cholesterol (Sigma), and 1,2-dimyristoyl-sn-glycero-3-phosphoethanolamine-N-[methoxy(polyethyleneglycol)-2000] (ammonium salt) (C14-PEG 2000, Avanti) at a molar ratio of 35:16:46.5:2.5 and ionizable lipid:mRNA weight ratio of 10:1 in accordance with previously optimized formulation parameters for mRNA delivery. The aqueous phase was prepared in 10 mM citrate buffer (pH 3) with either EPO mRNA (human Erythropoietin mRNA, courtesy of Shire Pharmaceuticals, Cambridge, Mass.) or Luc mRNA (Firefly luciferase mRNA, Shire). The ethanol and aqueous phases were mixed at a 3:1 ratio in a microfluidic chip device (ref Delai's paper) using syringe pumps as previously described at a final mRNA concentration of 0.1 mg/mL. See, e.g., Chen et al., J. Am. Chem. Soc. (2012) 134:6948. Resultant LNPs were dialyzed against PBS in a 20,000 MWCO cassette at 4° C. for 2 hours.
(§1) Animal Experiments. […] Luminescence was quantified using LivingImage software (Perkin Elmer).

[2] = system: mice; experiment: Mortality and weight change of mice treated with mRNA LNPs; details: all doses studied
Experimental: FIG. 7 depicts the percent weight gain for cKK-E12 and OF-02 mRNA LNPs reported as mean SD (n=3) 24 hours after respective intravenous dose into mice.
Animal Experiments. […] LNPs were intraveneously injected in female C57BL/6 mice (Charles River Labs, 18-22 grams) via the tail vein. After six or 24 hours, blood was collected via the tail vein and serum was isolated by centrifugation in serum separation tubes. Serum EPO levels were quantified with an ELISA assay (Human Erythropoietin Quantikine IVD ELISA Kit, R&D Systems, Minneapolis, Md.). 24 hours after injection of Luc-mRNA LNPs, mice were injected intraperitoneally with 130 μL of D-luciferin (30 mg/mL in PBS). After fifteen minutes, mice were sacrificed and the organs were isolated (pancreas, spleen, liver, kidneys, lungs, heart, uterus and ovaries) and imaged with an IVIS imaging system (Perkin Elmer, Waltham, Mass.). Luminescence was quantified using LivingImage software (Perkin Elmer).

[3] = LNP diameter and polydispersity by dynamic light scattering; format: physicochemical; details: for LNP Diameter: largest intensity mean peak average
Experimental: (§2) General Lipid Nanoparticle (LNP) Synthesis. […] The ethanol and aqueous phases were mixed at a 3:1 ratio in a microfluidic chip device (ref […] paper) using syringe pumps as previously described at a final mRNA concentration of 0.1 mg/mL. See, e.g., Chen et al., J. Am. Chem. Soc. (2012) 134:6948. Resultant LNPs were dialyzed against PBS in a 20,000 MWCO cassette at 4° C. for 2 hours. LNP Characterization. To calculate the mRNA encapsulation efficiency, a modified Quant-iT RiboGreen RNA assay (Invitrogen) was used as previously described. See, […] al., J. Controlled Release (2005) 107:276-287. The diameter and polydispersity (PDI) of the LNPs were measured using dynamic light scattering (ZetaPALS, Brookhaven Instruments). LNP diameters are reported as the largest intensity mean peak average, which constituted >95% of the nanoparticles present in the sample.

[4] = system: Factor VII; details: mice, siRNA delivery; cited from earlier work
[5] = system: luciferase; parameters: species or system mice; details: mouse, in vivo
Experimental: We were interested to determine if the efficacy differences observed between ckk-E12 and OF-02 LNPs were due to variations in biodistribution. mRNA coding for luciferase was independently formulated with both ckk-E12 and OF-02 in the same fashion as for EPO delivery, and mouse organs were harvested 24 hours post injection. […] Since more than 4000 human diseases are caused by liver genetic disorders such as hemophilias A and B, OF-02 LNPs represent a promising delivery vehicle for therapeutic mRNA delivery to the liver. See, e.g., J. McClellan et al., Cell 2010, 142, 353-355.
as §1

[6] = mRNA encapsulation efficiency, modified Quant-iT RiboGreen RNA assay; format: physicochemical; details: EPO mRNA LNP formulation of the ionizable lipid
Experimental: as §2

Row | SMILES | serum EPO concentration [1] [ng/mL] | animal mortality [2] | PDI [3] | LNP Diameter [3] [nm] | siRNA dose at which Factor VII expression is silenced [4] [µg/kg] | dose response behaviour of EPO production ([1]; 0.75 to 2.25 mg/kg EPO mRNA (FIG. 3B)) | Average EPO [1] [ng/mL] | organ of luciferase mRNA translation (total luminescence per organ) [5] | Encapsulation Efficiency [6] [%]
1 | CCCCCCCCCCC(O)CN(CCN1CCN(CCN(CC(O)CCCCCCCCCC)CC(O)CCCCCCCCCC)CC1)CCN(CC(O)CCCCCCCCCC)CC(O)CCCCCCCCCC (stereo not drawn) [Compound C12-200] | 7065 | – | – | – | – | – | – | – | –
2 | CCCCCCCCCCC(O)CN(CCCCC1NC(=O)C(CCCCN(CC(O)CCCCCCCCCC)CC(O)CCCCCCCCCC)NC1=O)CC(O)CCCCCCCCCC (stereo not drawn) [cKK-E12] | 7050 | no animal mortality was observed | 0.217 | 83 | 2 | linear fashion with respect to dose | 7100 ± 700 | predominantly translated in the liver | 54
3 | CC/C=C\C/C=C\C/C=C\CC(O)CN(CCCCC1NC(=O)C(CCCCN(CC(O)C/C=C\C/C=C\C/C=C\CC)CC(O)C/C=C\C/C=C\C/C=C\CC)NC1=O)CC(O)C/C=C\C/C=C\C/C=C\CC (stereo not drawn) [OF-03] | – | – | 0.239 | 75 | – | – | 140 ± 3 | – | 76
4 | CCCCCCCCCCCCCOC(=O)CCN(CCC(=O)OCCCCCCCCCCCCC)CCN(C)CCCN(C)CCN(CCC(=O)OCCCCCCCCCCCCC)CCC(=O)OCCCCCCCCCCCCC [Compound 503-013] | 2836 | – | – | – | – | – | – | – | –
